In patent US20220395522A1, “Methods of Use of Glucosamine for Increasing Nitrogen Retention” (TSI Bioproducts (Xuzhou) Co., Ltd., priority 2021, published 2022):
Read-outs that look alike come from different tables or passages of the source.

Format: in vivo, human
Settings: for Fecal 3-Hydroxybutyrate / Fecal Acetate / Fecal Alanine / Fecal Butyrate / Fecal Cadaverine / Fecal Ethanol / Fecal Formate / Fecal Fumarate / Fecal Glucose / Fecal Glutamate / Fecal Glycerol / Fecal Glycine / Fecal Hypoxanthine / Fecal Isobutyrate / Fecal Isoleucine / Fecal Isovalerate / Fecal Lactate / Fecal Leucine / Fecal Lysine / Fecal Methionine / Fecal Methionine-sulfoxide / Fecal N-Acetylglucosamine / Fecal Nicotinate / Fecal Phenylacetate / Fecal Phenylalanine / Fecal Proline / Fecal Propionate / Fecal Putrescine / Fecal Ribose / Fecal Succinate / Fecal Threonine / Fecal Total AA / Fecal Total BCAAs / Fecal Total SCFA / Fecal Tyrosine / Fecal Uracil / Fecal Urocanate / Fecal Valerate / Fecal Valine / Fecal Xylose / Fecal p-Cresol: GLU condition, mean ± SD
Text: Stool specimens were collected at four time points throughout the entire study protocol. The first two samples were collected before and after the first supplementation period while the final two samples were collected before and after the second supplementation period. All stool specimens were collected no more than 24-hours prior to that study participant being scheduled to complete their laboratory visit. All samples were immediately frozen after sample collection by the study participants. Participants were instructed to keep their samples in the freezer and to remove them at the latest possible time to minimize thawing during transfer to the laboratory for storage. Participants were provided with all materials necessary to collect, store, and transport the stool specimen including commode fecal collection system, fecal collection tubes with screw top lids and scoops attached, disposable gloves, freezer packs, specimen labels, and transfer containers. Participants were instructed to raise the toilet seat and place the stool collection frame on the back of the toilet bowl and then lower the toilet seat down and place collection bowl in frame. Participants then sat on the toilet and collected a stool sample into the container. Participants were instructed, if possible, to not urinate into the collection container. Participants then extracted a representative stool sample and filled each of the two provided sample collection tubes. Tubes were then secured, labeled, and frozen. All remaining stool was discarded into the toilet and flushed. Upon arrival in the laboratory each sample was immediately stored at −80° C.
A Fecal Metabolome Analysis was further conducted. Samples were manually homogenized with a sterile microspatula, and approximately 250 mg of fecal material was weighed and extracted using 1.5 mL of ice-cold Dulbecco's phosphate buffered saline (DPBS, 1×, pH 7.4). After extraction, samples were centrifuged, and the pellet was dried using a Labconco FreeZone 4.5 L Freeze Dry System to determine fecal dry weight. The supernatant was sequentially filtered through a 0.22 μm pore-size syringe filter (Millex-GP syringe filter, Millipore, Billerica, Mass.) to remove microbes followed by a 3 kDa ultracentrifugal filter (Amicon ultracentrifugal filter, Millipore, Billerica, Mass.) to remove any excess proteins. To 207 […], 23 […] (5 mM DSS-d6 (trimethylsilylpropanesulfonate) containing 0.2% NaN3 in 99.8% D20 was added to aid in quantification of metabolites. The pH of each sample was adjusted to 6.8±0.1 through addition of small amounts of NaOH or HCl. Samples were transferred to 3 mm Bruker NMR tubes (Bruker, Brillerica, Mass.) and stored at 4° C. until spectral acquisition. Nuclear magnetic resonance (NMR) spectra were acquired using a Bruker Avance 600 MHz NMR spectrometer equipped with a SampleJet autosampler (Bruker BioSpin, Germany) at 298 K using the NOESY 1H presaturation experiment (‘noesypr1d’). Data were acquired with a spectral width of 12 ppm, a 2.5-second acquisition time, a relaxation delay of 2.5 seconds, and a 100-millisecond mixing time using 32 transients and 8 dummy scans. Water saturation was applied during the relaxation delay and mixing time. Each spectrum was Fourier Transformed with zero filling to 128,000 data points, and the resulting Free Induction Decay (FID) was transformed with an exponential apodization function corresponding to a line-broadening of 0.5 Hz. Spectra were subsequently phased and baseline corrected using Chenomx NMRSuite Processor v8.3 (Chenomx Inc., Edmonton, Canada). Metabolites were identified and quantified based on the known concentration of the internal standard, using Chenomx NMRSuite Profiler v8.3 based on the established method of targeted profiling.

[1] = Post 21 days, 3 x 1,000 mg/day oral

Cl.N[C@H]1C(O)O[C@H](CO)[C@@H](O)[C@@H]1O (some centres unmarked) [GLU, glucosamine hydrochloride]
Fecal 3-Hydroxybutyrate [1]: 76 ± 35 | Fecal Acetate [1]: 43,680 ± 11,351 | Fecal Alanine [1]: 2228 ± 721 | Fecal Butyrate [1]: 13,538 ± 6558 | Fecal Cadaverine [1]: 165 ± 56 | Fecal Ethanol [1]: 272 ± 187 | Fecal Formate [1]: 403 ± 299 | Fecal Fumarate [1]: 218 ± 115 | Fecal Glucose [1]: 3334 ± 2753 | Fecal Glutamate [1]: 6773 ± 2223 | Fecal Glycerol [1]: 6397 ± 3575 | Fecal Glycine [1]: 965 ± 399 | Fecal Hypoxanthine [1]: 325 ± 143 | Fecal Isobutyrate [1]: 1956 ± 1334 | Fecal Isoleucine [1]: 777 ± 388 | Fecal Isovalerate [1]: 1712 ± 1304 | Fecal Lactate [1]: 172 ± 396 | Fecal Leucine [1]: 1094 ± 496 | Fecal Lysine [1]: 1454 ± 554 | Fecal Methionine [1]: 352 ± 210 | Fecal Methionine-sulfoxide [1]: 202 ± 149 | Fecal N-Acetylglucosamine [1]: 187 ± 152 | Fecal Nicotinate [1]: 271 ± 106 | Fecal Phenylacetate [1]: 999 ± 786 | Fecal Phenylalanine [1]: 544 ± 208 | Fecal Proline [1]: 654 ± 326 | Fecal Propionate [1]: 12,663 ± 5766 | Fecal Putrescine [1]: 115 ± 61 | Fecal Ribose [1]: 1332 ± 533 | Fecal Succinate [1]: 758 ± 430 | Fecal Threonine [1]: 659 ± 252 | Fecal Total AA [1]: 17,208 ± 5190 | Fecal Total BCAAs [1]: 2873 ± 1312 | Fecal Total SCFA [1]: 76,527 ± 25,492 | Fecal Tyrosine [1]: 707 ± 273 | Fecal Uracil [1]: 684 ± 287 | Fecal Urocanate [1]: 85 ± 48 | Fecal Valerate [1]: 2574 ± 1519 | Fecal Valine [1]: 1003 ± 451 | Fecal Xylose [1]: 702 ± 545 | Fecal p-Cresol [1]: 551 ± 537 | Fecal 3-Hydroxybutyrate (Pre (baseline)): 89 ± 62 | Fecal Acetate (Pre (baseline)): 40,675 ± 12,876 | Fecal Alanine (Pre (baseline)): 2667 ± 1134 | Fecal Butyrate (Pre (baseline)): 11,370 ± 5781 | Fecal Cadaverine (Pre (baseline)): 170 ± 52 | Fecal Ethanol (Pre (baseline)): 169 ± 98 | Fecal Formate (Pre (baseline)): 298 ± 166 | Fecal Fumarate (Pre (baseline)): 225 ± 151 | Fecal Glucose (Pre (baseline)): 2229 ± 2054 | Fecal Glutamate (Pre (baseline)): 8882 ± 3831 | Fecal Glycerol (Pre (baseline)): 7458 ± 7347 | Fecal Glycine (Pre (baseline)): 1207 ± 514 | Fecal Hypoxanthine (Pre (baseline)): 414 ± 190 | Fecal Isobutyrate (Pre (baseline)): 2097 ± 887 | Fecal Isoleucine (Pre (baseline)): 1029 ± 462 | Fecal Isovalerate (Pre (baseline)): 1885 ± 886 | Fecal Lactate (Pre (baseline)): 60 ± 49 | Fecal Leucine (Pre (baseline)): 1422 ± 622 | Fecal Lysine (Pre (baseline)): 1834 ± 815 | Fecal Methionine (Pre (baseline)): 424 ± 290 | Fecal Methionine-sulfoxide (Pre (baseline)): 258 ± 191 | Fecal N-Acetylglucosamine (Pre (baseline)): 249 ± 147 | Fecal Nicotinate (Pre (baseline)): 327 ± 162 | Fecal Phenylacetate (Pre (baseline)): 1095 ± 511 | Fecal Phenylalanine (Pre (baseline)): 629 ± 280 | Fecal Proline (Pre (baseline)): 687 ± 280 | Fecal Propionate (Pre (baseline)): 12,596 ± 4145 | Fecal Putrescine (Pre (baseline)): 92 ± 59 | Fecal Ribose (Pre (baseline)): 1428 ± 760 | Fecal Succinate (Pre (baseline)): 635 ± 289 | Fecal Threonine (Pre (baseline)): 831 ± 355 | Fecal Total AA (Pre (baseline)): 21,838 ± 8104 | Fecal Total BCAAs (Pre (baseline)): 3802 ± 1674 | Fecal Total SCFA (Pre (baseline)): 71,612 ± 22,891 | Fecal Tyrosine (Pre (baseline)): 874 ± 394 | Fecal Uracil (Pre (baseline)): 922 ± 352 | Fecal Urocanate (Pre (baseline)): 104 ± 57 | Fecal Valerate (Pre (baseline)): 2691 ± 1314 | Fecal Valine (Pre (baseline)): 1351 ± 610 | Fecal Xylose (Pre (baseline)): 441 ± 420 | Fecal p-Cresol (Pre (baseline)): 597 ± 330 | Fecal 3-Hydroxybutyrate, % (PLA vs. GLU, between-group): 4.3% | Fecal Acetate, % (PLA vs. GLU, between-group): 0.5% | Fecal Alanine, % (PLA vs. GLU, between-group): −33.4% | Fecal Butyrate, % (PLA vs. GLU, between-group): 14.3% | Fecal Cadaverine, % (PLA vs. GLU, between-group): −29.1% | Fecal Ethanol, % (PLA vs. GLU, between-group): 123.7% | Fecal Formate, % (PLA vs. GLU, between-group): 30.7% | Fecal Fumarate, % (PLA vs. GLU, between-group): −29.4% | Fecal Glucose, % (PLA vs. GLU, between-group): 61.4% | Fecal Glutamate, % (PLA vs. GLU, between-group): −30.7% | Fecal Glycerol, % (PLA vs. GLU, between-group): −33.0% | Fecal Glycine, % (PLA vs. GLU, between-group): −34.5% | Fecal Hypoxanthine, % (PLA vs. GLU, between-group): −27.1% | Fecal Isobutyrate, % (PLA vs. GLU, between-group): −38.6% | Fecal Isoleucine, % (PLA vs. GLU, between-group): −40.5% | Fecal Isovalerate, % (PLA vs. GLU, between-group): −18.9% | Fecal Lactate, % (PLA vs. GLU, between-group): 107.7% | Fecal Leucine, % (PLA vs. GLU, between-group): −28.4% | Fecal Lysine, % (PLA vs. GLU, between-group): −32.1% | Fecal Methionine, % (PLA vs. GLU, between-group): −23.7% | Fecal Methionine-sulfoxide, % (PLA vs. GLU, between-group): 37.4% | Fecal N-Acetylglucosamine, % (PLA vs. GLU, between-group): −34.9% | Fecal Nicotinate, % (PLA vs. GLU, between-group): −6.6% | Fecal Phenylacetate, % (PLA vs. GLU, between-group): −30.6% | Fecal Phenylalanine, % (PLA vs. GLU, between-group): −15.6% | Fecal Proline, % (PLA vs. GLU, between-group): −5.7% | Fecal Propionate, % (PLA vs. GLU, between-group): −10.0% | Fecal Putrescine, % (PLA vs. GLU, between-group): 5.0% | Fecal Ribose, % (PLA vs. GLU, between-group): −37.4% | Fecal Succinate, % (PLA vs. GLU, between-group): 8.0% | Fecal Threonine, % (PLA vs. GLU, between-group): −31.8% | Fecal Total AA, % (PLA vs. GLU, between-group): −31.0% | Fecal Total BCAAs, % (PLA vs. GLU, between-group): −36.5% | Fecal Total SCFA, % (PLA vs. GLU, between-group): −1.3% | Fecal Tyrosine, % (PLA vs. GLU, between-group): −30.5% | Fecal Uracil, % (PLA vs. GLU, between-group): −34.7% | Fecal Urocanate, % (PLA vs. GLU, between-group): −38.7% | Fecal Valerate, % (PLA vs. GLU, between-group): −36.0% | Fecal Valine, % (PLA vs. GLU, between-group): −42.4% | Fecal Xylose, % (PLA vs. GLU, between-group): 70.8% | Fecal p-Cresol, % (PLA vs. GLU, between-group): −27.7% | Fecal glutamate, isoleucine, leucine and valine content (compared to baseline, p<0.05): significantly reduced | Total amino acids, change (compared to baseline, p<0.05): −21% | Total branched-chain amino acid, change (compared to baseline, p<0.05): −24% | Fecal nucleotides (uracil) (compared to baseline, p=0.02): significantly reduced | Effect on individual or total short-chain fatty acids (p>0.05): no effect
